Results from patent US10316054B2, “Preparation and use of crystalline beta-D-nicotinamide riboside” (GlaxoSmithKline Intellectual Property (No. 2) Limited, priority 2014, dated 2019).

How the values were obtained:
[1] = tested on: Human primary dermal fibroblasts (HDFa); experiment: NAD measurement in dermal fibroblasts treated with NR chloride (ADPR cyclase enzymatic assay, absorbance 405 nm); type: cell-based; settings: for NAD levels: FIG. 16
Method: Human primary dermal fibroblasts derived from adult human skins (HDFa, Life technologies, Grand Island, NY, Passage 2-4) were grown in Medium 106 (Life Technologies) supplemented with Low Serum Growth Supplement (LSGS) (Life Technologies) and seeded in 12-well plates with density at 2×10^5 cells per well and 1 ml of culture medium in each well.
Stock solution of NR chloride (MW: 322.742, GSK3002633B) was prepared freshly in water at 100 mM. Cells were treated with NR chloride at different concentrations as shown in […] for 6 and 24 hrs, washed twice with PBS containing 5 mM EDTA, and then subject to Nicotinamide adenine dinucleotide (NAD) measurement. In brief, acetonitrile (ACN) lysis buffer (Ammonium Acetate (50 mM) and 90% acetonitrile) was added to each well (200 μl/well) to lyse the cells at RT for 5-10 mins by gently rotating on a culture plate shaker at a low speed. Enzyme master mix (300 μM of 5-Amino-(3,4′-bipyridin)-6(1H)-one (Inamrinone) (Sigma-Aldrich), a substrate for ADP ribosyl cyclase (ADPR cyclase)) and 30 nM ADPR Cyclase (Sigma, St. Louis, Mont.), in 75 mM HEPES pH7 buffer (Life Technologies)) was added to the lysed cells (400 μl of enzyme master mix/well). Enzymatic reaction was incubated at RT for ˜30 min. At the end of incubation, the supernatant (200 μl) of the reaction solution from each well was transferred to each well of a 96-well plate and absorbance was read twice in the 96-well plate at 405 nm using a plate reader (Spectra Maxplus, Molecular Devices, Sunnyvale, Calif.). A mixture of enzyme master mix and ACN extraction solution at 2:1 ratio was used as a blank reference.
Isolated, chemically-pure NAD (Sigma) was used as a positive control. Other NAD assays are known in the art or otherwise publically available as a kit (see, e.g., Neubert, D., et al., Biochim. Biophys. Acta, 1964, 92, 610-12; Emanuelli, M., et al. J. Chromatog. B. 676, 13-18; and NAD/NADH Cell-Based Assay Kit by Cayman Chemical).

[2] = Thermal decomposition of the crystals on heating under vacuum, confirmed by 1H NMR in D2O; type: physicochemical
Method: The crystalline nature of this product was confirmed by optical microscopy using polarized light (FIG. 5). A 50 mg portion of this material was dried under high vacuum (<1.0 mm Hg) and at ambient temperature for 48 h. […] The material completely decomposed, without melting, within 17 min at 100° C. at <1 mm Hg. (Decomposition was confirmed by ^1H NMR spectral analysis in D2O solution after the heating period.) In contrast, a sample could be heated at 80° C. for 1 h and <1 mm Hg with <3% decomposition. ^1H NMR (400 MHz, D2O) δ 9.63 (s, 1H, H2), 9.31 (d, 1H, J=5.9 Hz, H4), 9.01 (dd, 1H, J=8.0 Hz, 1.0 Hz, H6), 8.32 (dd, 1H, J=8.0 Hz, 5.9 Hz, H5), 6.29 (d, 1H, J=3.9 Hz, H1′), 4.55 (t, 1H, J=3.9 Hz, H2′), 4.50 (m, 1H, H4′), 4.38 (t, 1H, J=3.9 Hz, H3′), 4.08 (dd, 1H, J=12, 3 Hz, H5′), 3.93 (dd, 1H, J=12, 3, Hz, H5′); ^13C NMR (75 MHz, D2O) δ 165.8 (C7), 145.6 (C6), 142.6 (C4), 140.4 (C2), 133.9 (C3), 128.4 (C5), 99.9 (C1′), 87.6 (C4′), 77.4 (C2′), 69.7 (C3′), 60.1 (C5′); IR (cm−1) 3299, 1700, 1398, 1080, 982, 887, 795 (see FIG. 8). XRPD (degrees) 14.2, 17.1, 20.5, 22.7, 23.8, 25.1, 26.8, 34.2 X-ray powder diffraction (XRPD) data are included as FIG. 6. The XRPD serves as a fingerprint for the crystalline form of nicotinamide riboside chloride with only trace residual solvents present.

[3] = Behaviour of the solid on filtration under ambient conditions / ambient humidity; type: physicochemical
Method: Crude product (351 g) from the above example was dissolved in 1.5 L of methanol, then 625 mL of methanol was removed in vacuo. For the initial crystallization experiments, this solution was placed in a glass round-bottomed flask, and the side was scratched with a metal spatula. The solution was then stored at −20° C. for several weeks until a crystalline precipitate formed. […] For subsequent preparations, the methanol solution was seeded with 100 mg of crystalline nicotinamide riboside chloride, and the solution was allowed to stand at ambient temperature while the product crystallized over the course of several hours. Using a Buchner funnel filtration apparatus, the crystals were filtered and washed with 200 mL of ice-cold methanol. The product was dried on the filter, open to the air, for 1.5 h, then under high vacuum (<[…]) at ambient temperature for 18 h. The yield was 157 g (34%) of a light yellow solid. The product contained 0.9 molar equivalents of methanol by ^1H NMR integration (i.e., nicotinamide riboside chloride ●0.9 methanol crystals). This residual methanol could not be removed by additional drying at <40° C. […]

Compound: NC(=O)c1ccc[n+]([C@@H]2O[C@H](CO)[C@@H](O)[C@H]2O)c1.[Cl-] [NR chloride, nicotinamide riboside chloride]
- NAD levels ([1]; 6 hrs treatment): dose-dependently increased NAD levels
- NAD levels ([1]; 24 hrs treatment): dose-dependently increased NAD levels
- intracellular NAD levels ([1]; FIG. 16, time not given): dose-dependently increases intracellular NAD levels

Compound: NC(=O)c1ccc[n+]([C@@H]2O[C@H](CO)[C@@H](O)[C@H]2O)c1.[Cl-] [Example 4, nicotinamide riboside chloride]
- time to complete decomposition, without melting ([2]; 100° C. at <1 mm Hg): ≤ 17 min
- resistance to decomposition upon heating ([2]; compared with amorphous forms of nicotinamide riboside): far more resistant to decomposition upon heating than amorphous forms
- decomposition ([2]; heated at 80° C. for 1 h and <1 mm Hg): < 3%

Compound: NC(=O)c1ccc[n+]([C@@H]2O[C@H](CO)[C@@H](O)[C@H]2O)c1.[Cl-] [Example 3, 3-carbamoyl-1-((2R,3R,4S,5R)-3,4-dihydroxy-5-(hydroxymethyl)tetrahydrofuran-2-yl)pyridin-1-ium chloride]
- behaviour on the filter under ambient conditions [3]: could be filtered under ambient conditions while remaining free-flowing
